In ChEMBL document CHEMBL4483862, “Open-source discovery of chemical leads for next-generation chemoprotective antimalarials” (2018):

System: Plasmodium berghei
Assay: Luciferase/luciferin-expressing antifolate-resistant parasites were used to infect a culture of HepG2 cells that were pre-incubated with compounds. Infected hepatocytes emit light due to the luciferase reaction. Assay results are presented as the percent inhibition of light emission compared to control. […]
Assay type: functional
Settings: sporozoite; for IC90: read-out: LUCIFERASE INFECTION ASSAY - IC90

Cc1noc(C)c1COc1cccc(C(=O)OCC(=O)N2CC(=O)Nc3ccccc32)c1
IC50 (HEPG2TOX_HILL_SLOPE 1.25, HEPG2TOX_R_SQUARED 0.939, PBLUC_HILL_SLOPE 2.73, PBLUC_R_SQUARED 0.35, read-out: LUCIFERASE INFECTION ASSAY - IC50): 6680 nM
IC90: > 10000 nM

CCCc1c(O)nc2ccc(C)cc2c1C
IC50 (HEPG2TOX_HILL_SLOPE 1.25, HEPG2TOX_R_SQUARED 0.942, PBLUC_HILL_SLOPE 1.62, PBLUC_R_SQUARED 0.0626, read-out: LUCIFERASE INFECTION ASSAY - IC50): 11300 nM
IC90: > 15300 nM

CCCNc1nc(-c2ccccc2)c(C(=O)OCC)cc1C#N
IC50 (HEPG2TOX_HILL_SLOPE 1.25, HEPG2TOX_R_SQUARED 0.958, PBLUC_HILL_SLOPE 3.81, PBLUC_R_SQUARED 0.673, read-out: LUCIFERASE INFECTION ASSAY - IC50): 1750 nM
IC90: 3120 nM

CN(C)c1ccc(/C=C/c2ccc3ccccc3[n+]2C)cc1
IC50 (HEPG2TOX_HILL_SLOPE 1.22, HEPG2TOX_R_SQUARED 0.944, PBLUC_HILL_SLOPE 2.39, PBLUC_R_SQUARED 0.798, read-out: LUCIFERASE INFECTION ASSAY - IC50): 935 nM
IC90: 2350 nM

CC(C)c1ccc(-n2c(-c3ccccc3)c[n+]3c2CCc2ccccc2-3)cc1
IC50 (HEPG2TOX_HILL_SLOPE 1.23, HEPG2TOX_R_SQUARED 0.988, PBLUC_HILL_SLOPE 3.39, PBLUC_R_SQUARED 0.644, read-out: LUCIFERASE INFECTION ASSAY - IC50): 642 nM
IC90: 1230 nM

COc1cc(-c2cnc3cnc(-c4ccc(NCCN5CCOCC5)nc4)cn23)ccc1O
IC50 (HEPG2TOX_HILL_SLOPE 1.25, HEPG2TOX_R_SQUARED 0.41, PBLUC_HILL_SLOPE 2.45, PBLUC_R_SQUARED 0.19, read-out: LUCIFERASE INFECTION ASSAY - IC50): 6150 nM
IC90: > 7390 nM

Cn1ccc2cc(-c3cnc4cnc(-c5cccc(C(N)=O)c5)cn34)ccc21
IC50 (HEPG2TOX_HILL_SLOPE 1.25, HEPG2TOX_R_SQUARED 0.898, PBLUC_HILL_SLOPE 0.953, PBLUC_R_SQUARED 0.66, read-out: LUCIFERASE INFECTION ASSAY - IC50): 1230 nM
IC90: > 8980 nM

CC(Nc1ncnc2ccsc12)c1nc2ccccc2n1C(F)F (configuration not stated)
IC50 (HEPG2TOX_HILL_SLOPE 1.22, HEPG2TOX_R_SQUARED 0.959, PBLUC_HILL_SLOPE 2.24, PBLUC_R_SQUARED 0.732, read-out: LUCIFERASE INFECTION ASSAY - IC50): 2970 nM
IC90: 7920 nM

CS(=O)(=O)Nc1nc(-c2ccccn2)nc2scc(-c3ccccc3)c12
IC50 (HEPG2TOX_HILL_SLOPE 1.24, HEPG2TOX_R_SQUARED 0.884, PBLUC_HILL_SLOPE 3.45, PBLUC_R_SQUARED 0.254, read-out: LUCIFERASE INFECTION ASSAY - IC50): 1740 nM
IC90: 3290 nM

O=C(NCCO)c1cccc(-c2ccc3ncc(-c4cccc(Cl)c4)n3n2)c1
IC50 (HEPG2TOX_HILL_SLOPE 1.24, HEPG2TOX_R_SQUARED 0.781, PBLUC_HILL_SLOPE 15.2, PBLUC_R_SQUARED 0.219, read-out: LUCIFERASE INFECTION ASSAY - IC50): 3080 nM
IC90: 3560 nM

CCOC(=O)c1c(C)[nH]c(C(=O)C(C)OC(=O)c2n[nH]c(=O)c3ccccc23)c1C (configuration not stated)
IC50 (HEPG2TOX_HILL_SLOPE 1.25, HEPG2TOX_R_SQUARED 0.561, read-out: LUCIFERASE INFECTION ASSAY - IC50): > 10000 nM
IC90: > 10000 nM

O=C(c1cnc2cc3c(cc2c1)OCCO3)c1cc(F)ccc1O
IC50 (HEPG2TOX_HILL_SLOPE 1.24, HEPG2TOX_R_SQUARED 0.963, PBLUC_HILL_SLOPE 1.6, PBLUC_R_SQUARED 0.807, read-out: LUCIFERASE INFECTION ASSAY - IC50): 612 nM
IC90: 2410 nM

O=C(NCCC1=CCCCC1)c1cc2ccccc2c(=O)[nH]1
IC50 (HEPG2TOX_HILL_SLOPE 1.23, HEPG2TOX_R_SQUARED 0.699, PBLUC_HILL_SLOPE 12.6, PBLUC_R_SQUARED 0.339, read-out: LUCIFERASE INFECTION ASSAY - IC50): 9570 nM
IC90: > 10000 nM

COc1ccc(S(=O)(=O)N(Cc2cccs2)c2ccc3c(c2)OCCO3)cc1NC(C)=O
IC50 (HEPG2TOX_HILL_SLOPE 1.25, HEPG2TOX_R_SQUARED 0.989, PBLUC_HILL_SLOPE 1.59, PBLUC_R_SQUARED 0.297, read-out: LUCIFERASE INFECTION ASSAY - IC50): 4150 nM
IC90: > 10000 nM

OCc1cccc(-c2ccc3ncc(-c4cccc(Cl)c4)n3n2)c1
IC50 (HEPG2TOX_HILL_SLOPE 1.23, HEPG2TOX_R_SQUARED 0.98, PBLUC_HILL_SLOPE 1.42, PBLUC_R_SQUARED 0.52, read-out: LUCIFERASE INFECTION ASSAY - IC50): 582 nM
IC90: 2730 nM

Cn1ccc2cc(-c3cnc4cnc(-c5ccc6c(c5)OCO6)cn34)ccc21
IC50 (HEPG2TOX_HILL_SLOPE 1.26, HEPG2TOX_R_SQUARED 0.912, PBLUC_HILL_SLOPE 10.9, PBLUC_R_SQUARED 0.837, read-out: LUCIFERASE INFECTION ASSAY - IC50): 33.8 nM
IC90: 41.3 nM

Cc1cccc(C2CC(=O)c3cnn(-c4nc(C)cc(C)n4)c3C2)c1 (configuration not stated)
IC50 (HEPG2TOX_HILL_SLOPE 1.23, HEPG2TOX_R_SQUARED 0.907, PBLUC_HILL_SLOPE 2.7, PBLUC_R_SQUARED 0.565, read-out: LUCIFERASE INFECTION ASSAY - IC50): 617 nM
IC90: 1390 nM

O=C(NNC(=O)c1ccccc1OCc1cn2ccccc2n1)c1ccc2ccccc2n1
IC50 (HEPG2TOX_HILL_SLOPE 1.26, HEPG2TOX_R_SQUARED 0.832, PBLUC_HILL_SLOPE 7.59, PBLUC_R_SQUARED 0.237, read-out: LUCIFERASE INFECTION ASSAY - IC50): 1310 nM
IC90: 1740 nM

O=C(NCc1ccccc1OC1CCCC1)Nc1nnc(C2CC2)s1
IC50 (HEPG2TOX_HILL_SLOPE 1.24, HEPG2TOX_R_SQUARED 0.927, PBLUC_HILL_SLOPE 4.07, PBLUC_R_SQUARED 0.516, read-out: LUCIFERASE INFECTION ASSAY - IC50): 4400 nM
IC90: 7550 nM

Cc1cc(C(=O)/C(C#N)=N/Nc2cccc(Cl)c2)n(C(C)(C)C)n1
IC50 (HEPG2TOX_HILL_SLOPE 1.25, HEPG2TOX_R_SQUARED 0.973, PBLUC_HILL_SLOPE 1.27, PBLUC_R_SQUARED 0.674, read-out: LUCIFERASE INFECTION ASSAY - IC50): 3490 nM
IC90: > 9600 nM

O=C(N/N=C(\Cc1ncc[nH]1)c1ccccc1)c1cccs1
IC50 (HEPG2TOX_HILL_SLOPE 1.23, HEPG2TOX_R_SQUARED 0.975, PBLUC_HILL_SLOPE 4.09, PBLUC_R_SQUARED 0.691, read-out: LUCIFERASE INFECTION ASSAY - IC50): 2440 nM
IC90: 4170 nM

CCN(CCNc1ncnc2sc3c(c12)CCC3)c1cccc(C)c1
IC50 (HEPG2TOX_HILL_SLOPE 1.22, HEPG2TOX_R_SQUARED 0.961, PBLUC_HILL_SLOPE 11.3, PBLUC_R_SQUARED 0.508, read-out: LUCIFERASE INFECTION ASSAY - IC50): 1180 nM
IC90: 1440 nM

Cc1ccc(C)c(OC2CCN(C(=O)Nc3cc(C)on3)CC2)c1
IC50 (HEPG2TOX_HILL_SLOPE 1.23, HEPG2TOX_R_SQUARED 0.839, PBLUC_HILL_SLOPE 15.3, PBLUC_R_SQUARED 0.595, read-out: LUCIFERASE INFECTION ASSAY - IC50): 1190 nM
IC90: 1370 nM

COC(=O)c1c(C)[nH]c(C(=O)C(C)OC(=O)Cn2c(C(F)(F)F)nc3ccccc32)c1C (configuration not stated)
IC50 (HEPG2TOX_HILL_SLOPE 1.23, HEPG2TOX_R_SQUARED 0.914, read-out: LUCIFERASE INFECTION ASSAY - IC50): > 10000 nM
IC90: > 10000 nM

O=C(NN=c1nc[nH]c2ccccc12)c1c(O)c(O)cc2ccccc12
IC50 (HEPG2TOX_HILL_SLOPE 1.23, 1.37, HEPG2TOX_R_SQUARED 0.873, 0.334, PBLUC_HILL_SLOPE 12.1, 7.99, PBLUC_R_SQUARED 0.334, 0.684, read-out: LUCIFERASE INFECTION ASSAY - IC50): 1070 nM
IC90: 1340 nM

O=C(NCC1CCCO1)c1cc2c([nH]c3ccccc32)c(-c2ccc(F)cc2)n1 (configuration not stated)
IC50 (HEPG2TOX_HILL_SLOPE 1.25, HEPG2TOX_R_SQUARED 0.9, PBLUC_HILL_SLOPE 2.06, PBLUC_R_SQUARED 0.74, read-out: LUCIFERASE INFECTION ASSAY - IC50): 2860 nM
IC90: 8340 nM

O=C(Nc1nc2ccccn2c1C(=O)NC1CCCC1)c1ccc(Cl)cc1Cl
IC50 (HEPG2TOX_HILL_SLOPE 1.22, HEPG2TOX_R_SQUARED 0.989, PBLUC_HILL_SLOPE 22.2, PBLUC_R_SQUARED 0.579, read-out: LUCIFERASE INFECTION ASSAY - IC50): 2410 nM
IC90: 2660 nM

CCOc1cc2ncc(C#N)c(Nc3ccc(F)c(Cl)c3)c2cc1N
IC50 (HEPG2TOX_HILL_SLOPE 1.25, HEPG2TOX_R_SQUARED 0.941, PBLUC_HILL_SLOPE 3.96, PBLUC_R_SQUARED 0.532, read-out: LUCIFERASE INFECTION ASSAY - IC50): 3610 nM
IC90: 6300 nM

COc1cc(NC(=O)c2cc(N3CCN(c4ccccn4)CC3)ncn2)cc(OC)c1OC
IC50 (HEPG2TOX_HILL_SLOPE 1.23, HEPG2TOX_R_SQUARED 0.824, PBLUC_HILL_SLOPE 2.21, PBLUC_R_SQUARED 0.872, read-out: LUCIFERASE INFECTION ASSAY - IC50): 596 nM
IC90: 1610 nM

c1cc2c(cc1-c1cn3c(-c4ccc5c(c4)OCO5)cnc3cn1)OCO2
IC50 (HEPG2TOX_HILL_SLOPE 1.25, HEPG2TOX_R_SQUARED 0.883, PBLUC_HILL_SLOPE 2.72, PBLUC_R_SQUARED 0.694, read-out: LUCIFERASE INFECTION ASSAY - IC50): 3660 nM
IC90: 8220 nM

c1ccc(-n2c(SCc3nc(-c4cccs4)no3)nnc2-c2ccc3c(c2)OCO3)cc1
IC50 (HEPG2TOX_HILL_SLOPE 1.25, HEPG2TOX_R_SQUARED 0.965, PBLUC_HILL_SLOPE 1.25, PBLUC_R_SQUARED 0.656, read-out: LUCIFERASE INFECTION ASSAY - IC50): 1150 nM
IC90: 6690 nM
